Patent US12077503B2, “Substituted cyclic amides and their use as herbicides” (FMC CORPORATION, priority 2015, dated 2024)

Experiments:
Assay type in all cases: in vivo
[1] = tested on: giant foxtail (Setaria faberii); assay: Test A preemergence; conditions: Setaria faberi, pre-emergence, 240 h
How it was run: (§1)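 Compounds were formulated in a non-phytotoxic solvent mixture with surfactant and applied as a preemergence directed soil spray after seeding, or sprayed postemergence over plants 2 to 10 cm tall at the one- to two-leaf stage. Evaluation after about 10 d compared treated with untreated controls, using a scale from 0 (no effect) to 100 (complete control).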

[2] = tested on: pigweed (Amaranthus retroflexus); assay: Test A preemergence; conditions: Amaranthus retroflexus, pre-emergence, 240 h
[3] = tested on: barnyardgrass (Echinochloa crus-galli); assay: Test A preemergence; conditions: Echinochloa crus-galli, pre-emergence, 240 h
How it was run: as §1

[4] = tested on: ragweed (common ragweed, Ambrosia elatior); assay: Test A preemergence; conditions: Ambrosia artemisiifolia, pre-emergence, 240 h
How it was run: as §1

[5] = tested on: ryegrass, Italian (Italian ryegrass, Lolium multiflorum); assay: Test A preemergence; conditions: Lolium multiflorum, pre-emergence, 240 h
How it was run: as §1

Kochia (Kochia scoparia) [6] = assay: Test A preemergence; conditions: Bassia scoparia, pre-emergence, 240 h
How it was run: as §1

[7] = tested on: ducksalad (Heteranthera limosa); assay: Test B flooded paddy test; conditions: Heteranthera limosa, 250 g ai/ha, Flood; 0 to 100 scale where 0 is no effect and 100 is complete control; read-out: Ducksalad plant response rating
How it was run: (§2)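 Plants at 2-leaf stage flooded to 3 cm above soil, with compounds applied directly to paddy water and that depth maintained. Plants kept in greenhouse 13–15 d. Visual rating versus controls on a 0 (no effect) to 100 (complete control) scale.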

[8] = tested on: barnyardgrass (Echinochloa crus-galli); assay: Test B flooded paddy test; conditions: Echinochloa crus-galli, 250 g ai/ha, Flood; 0 to 100 scale where 0 is no effect and 100 is complete control; read-out: Barnyardgrass plant response rating
How it was run: as §2

rice (Oryra sativa) = assay: Test B flooded paddy test; conditions: Oryza sativa, 250 g ai/ha, Flood; 0 to 100 scale where 0 is no effect and 100 is complete control; read-out: Rice plant response rating
How it was run: as §2

[9] = tested on: sedge, umbrella (small-flower umbrella sedge, Cyperus difformis); assay: Test B flooded paddy test; conditions: Cyperus difformis, 250 g ai/ha, Flood; 0 to 100 scale where 0 is no effect and 100 is complete control; read-out: Sedge, Umbrella plant response rating
How it was run: as §2

[10] = tested on: giant foxtail (Setaria faberii); assay: Test A postemergence; conditions: Setaria faberi, post-emergence, 240 h, read-out: Plant response rating, Foxtail, Giant
How it was run: as §1

corn (Zea mays) = assay: Test A postemergence; conditions: Zea mays, post-emergence, 240 h
How it was run: as §1

[11] = tested on: Galium (catchweed bedstraw, Galium aparine); assay: Test A postemergence; conditions: Galium, post-emergence, 240 h, read-out: Plant response rating, Galium
How it was run: as §1

[12] = tested on: wheat (Triticum aestivum); assay: Test A postemergence; conditions: Triticum aestivum, post-emergence, 240 h, read-out: Plant response rating, Wheat
How it was run: as §1

[13] = tested on: pigweed (Amaranthus retroflexus); assay: Test A postemergence; conditions: Amaranthus retroflexus, post-emergence, 240 h, read-out: Plant response rating, Pigweed
How it was run: as §1

[14] = tested on: barnyardgrass (Echinochloa crus-galli); assay: Test A postemergence; conditions: Echinochloa crus-galli, post-emergence, 240 h, read-out: Plant response rating, Barnyardgrass
How it was run: as §1

[15] = tested on: blackgrass (Alopecurus myosuroides); assay: Test A postemergence; conditions: Alopecurus myosuroides, post-emergence, 240 h, read-out: Plant response rating, Blackgrass
How it was run: as §1

[16] = tested on: ragweed (common ragweed, Ambrosia elatior); assay: Test A postemergence; conditions: Ambrosia artemisiifolia, post-emergence, 240 h, read-out: Plant response rating, Ragweed
How it was run: as §1

[17] = tested on: ryegrass, Italian (Italian ryegrass, Lolium multiflorum); assay: Test A postemergence; conditions: Lolium multiflorum, post-emergence, 240 h, read-out: Plant response rating, Ryegrass, Italian
How it was run: as §1

Kochia (Kochia scoparia) [18] = assay: Test A postemergence; conditions: Bassia scoparia, post-emergence, 240 h, read-out: Plant response rating, Kochia
How it was run: as §1

[19] = 125 g ai/ha, Postemergence, visual injury after approximately 10 d, 0 to 100 scale where 0 is no effect and 100 is complete control
[20] = 500 g ai/ha, postemergence, visual injury, 0 to 100 scale (0 no effect, 100 complete control), approx. 10 d

Which results are given for CN1CC[C@H](c2ccc(OC(F)(F)F)cc2)[C@@H](C(=O)Nc2cccc(Cl)c2F)C1=O [Compound 1002]?
pest or weed control at 125 g/ha ([1]; 125 g ai/ha, Preemergence, visual injury rating after approximately 10 d, read-out: Foxtail, Giant plant response rating (0 to 100 scale, 0 is no effect, 100 is complete control)): 30%; pest or weed control at 500 g/ha ([1]; 500 g ai/ha, preemergence, visual injury rating about 10 d after treatment, 0 to 100 scale (0 no effect, 100 complete control), read-out: Foxtail, Giant plant response rating): 80%; pest or weed control at 125 g/ha ([2]; 125 g ai/ha, Preemergence, visual injury rating after approximately 10 d, read-out: Pigweed plant response rating (0 to 100 scale, 0 is no effect, 100 is complete control)): 20%; pest or weed control at 500 g/ha ([2]; 500 g ai/ha, preemergence, visual injury rating about 10 d after treatment, 0 to 100 scale (0 no effect, 100 complete control), read-out: Pigweed plant response rating): 50%; pest or weed control at 125 g/ha ([3]; 125 g ai/ha, Preemergence, visual injury rating after approximately 10 d, read-out: Barnyardgrass plant response rating (0 to 100 scale, 0 is no effect, 100 is complete control)): 20%; pest or weed control at 500 g/ha ([3]; 500 g ai/ha, preemergence, visual injury rating about 10 d after treatment, 0 to 100 scale (0 no effect, 100 complete control), read-out: Barnyardgrass plant response rating): 70%; pest or weed control at 125 g/ha ([4]; 125 g ai/ha, Preemergence, visual injury rating after approximately 10 d, read-out: Ragweed plant response rating (0 to 100 scale, 0 is no effect, 100 is complete control)): 0%; pest or weed control at 500 g/ha ([4]; 500 g ai/ha, preemergence, visual injury rating about 10 d after treatment, 0 to 100 scale (0 no effect, 100 complete control), read-out: Ragweed plant response rating): 0%; pest or weed control at 125 g/ha ([5]; 125 g ai/ha, Preemergence, visual injury rating after approximately 10 d, read-out: Ryegrass, Italian plant response rating (0 to 100 scale, 0 is no effect, 100 is complete control)): 0%; pest or weed control at 500 g/ha ([5]; 500 g ai/ha, preemergence, visual injury rating about 10 d after treatment, 0 to 100 scale (0 no effect, 100 complete control), read-out: Ryegrass, Italian plant response rating): 0%; pest or weed control at 125 g/ha (Kochia (Kochia scoparia) [6]; 125 g ai/ha, Preemergence, visual injury rating after approximately 10 d, read-out: Kochia plant response rating (0 to 100 scale, 0 is no effect, 100 is complete control)): 0%; pest or weed control at 500 g/ha (Kochia (Kochia scoparia) [6]; 500 g ai/ha, preemergence, visual injury rating about 10 d after treatment, 0 to 100 scale (0 no effect, 100 complete control), read-out: Kochia plant response rating): 0%; pest or weed control at 250 g/ha [7]: 60%; pest or weed control at 250 g/ha [8]: 0%; pest or weed control at 250 g/ha (rice (Oryra sativa)): 0%; pest or weed control at 250 g/ha [9]: 0%; pest or weed control at 125 g/ha [10, 19]: 0%; pest or weed control at 500 g/ha [10, 20]: 50%; Corn plant response rating (crop injury, 0 = no effect, 100 = complete kill) at 125 g/ha (corn (Zea mays); [19]): 0%; Corn plant response rating (crop injury, 0 = no effect, 100 = complete kill) at 500 g/ha (corn (Zea mays); [20]): 0%; pest or weed control at 125 g/ha [11, 19]: 0%; pest or weed control at 500 g/ha [11, 20]: 0%; plant injury at 125 g/ha [12, 19]: 0%; plant injury at 500 g/ha [12, 20]: 0%; pest or weed control at 125 g/ha [13, 19]: 0%; pest or weed control at 500 g/ha [13, 20]: 0%; pest or weed control at 125 g/ha [14, 19]: 50%; pest or weed control at 500 g/ha [14, 20]: 90%; pest or weed control at 125 g/ha [15, 19]: 0%; pest or weed control at 500 g/ha [15, 20]: 0%; pest or weed control at 125 g/ha [16, 19]: 0%; pest or weed control at 500 g/ha [16, 20]: 0%; pest or weed control at 125 g/ha [17, 19]: 0%; pest or weed control at 500 g/ha [17, 20]: 0%; pest or weed control at 125 g/ha (Kochia (Kochia scoparia) [18]; [19]): 0%; pest or weed control at 500 g/ha (Kochia (Kochia scoparia) [18]; [20]): 40%
